Laboratory results from patent US20070049564A1 (Wyeth, priority 2005, published 2007).
Values after ≈ are worked out from the molar mass of the structure shown. Where two headings read alike, the source gives them in different places.

How the values were obtained:
S. aureus GC 6466 = assay: MIC, broth microdilution; conditions: Staphylococcus aureus
S. aureus GC 6335 = assay: MIC, broth microdilution; conditions: Staphylococcus aureus
P. aeruginosa GC 2214 = assay: MIC, broth microdilution; conditions: Pseudomonas aeruginosa
E. coli GC 2233 = assay: MIC, broth microdilution; conditions: Escherichia coli
E. coli GC 2203 = assay: MIC, broth microdilution; conditions: Escherichia coli
E. faecalis GC 2265 = assay: MIC, broth microdilution; conditions: Enterococcus faecalis
E. coli GC 2270 = assay: MIC, broth microdilution; conditions: Escherichia coli
S. pyogenes GC 4563 = assay: MIC, broth microdilution; conditions: Streptococcus pyogenes
E. coli GC 3226 = assay: MIC, broth microdilution; conditions: Escherichia coli
E. coli GC 2231 = assay: MIC, broth microdilution; conditions: Escherichia coli
S. aureus GC 2216 = assay: MIC, broth microdilution; conditions: Staphylococcus aureus
E. coli = assay: Range of MIC for E. coli strains; conditions: Escherichia coli
E. faecium GC 2243 = assay: MIC, broth microdilution; conditions: Enterococcus faecium
E. coli GC 2236 = assay: MIC, broth microdilution; conditions: Escherichia coli
E. coli GC 2271 = assay: MIC, broth microdilution; conditions: Escherichia coli
E. coli GC 2234 = assay: MIC, broth microdilution; conditions: Escherichia coli
Staph. = assay: Range of MIC for Staph. strains, including MRSA; conditions: Staphylococcus aureus, MRSA
E. faecium GC 4556 = assay: MIC, broth microdilution; conditions: Enterococcus faecium
S. aureus GC 6469 = assay: MIC, broth microdilution; conditions: Staphylococcus aureus
E. coli GC 2232 = assay: MIC, broth microdilution; conditions: Escherichia coli

MIC (S. aureus GC 6466; GC6466, read-out: MINIMAL INHIBITORY CONCENTRATION MIC, pre-incubated in Mouse Serum): 0.25 µg/mL (≈ 0.325 µM)
MIC (S. aureus GC 6466; GC6466, read-out: MINIMAL INHIBITORY CONCENTRATION MIC, pre-incubated in Water): 0.5 µg/mL (≈ 0.649 µM)
MIC (S. aureus GC 6335; GC6335, read-out: MINIMAL INHIBITORY CONCENTRATION MIC, pre-incubated in Mouse Serum): 2 µg/mL (≈ 2.6 µM)
MIC (S. aureus GC 6335; GC6335, read-out: MINIMAL INHIBITORY CONCENTRATION MIC, pre-incubated in Water): 4 µg/mL (≈ 5.2 µM)
MIC (P. aeruginosa GC 2214; GC2214, read-out: MINIMAL INHIBITORY CONCENTRATION MIC, pre-incubated in Mouse Serum): > 64 µg/mL
MIC (P. aeruginosa GC 2214; GC2214, read-out: MINIMAL INHIBITORY CONCENTRATION MIC, pre-incubated in Water): > 64 µg/mL
MIC (E. coli GC 2233; GC2233, read-out: MINIMAL INHIBITORY CONCENTRATION MIC, pre-incubated in Mouse Serum): 2 µg/mL (≈ 2.6 µM)
MIC (E. coli GC 2233; GC2233, read-out: MINIMAL INHIBITORY CONCENTRATION MIC, pre-incubated in Water): > 64 µg/mL
MIC (E. coli GC 2203; GC2203, read-out: MINIMAL INHIBITORY CONCENTRATION MIC, pre-incubated in Mouse Serum): 1 µg/mL (≈ 1.3 µM)
MIC (E. coli GC 2203; GC2203, read-out: MINIMAL INHIBITORY CONCENTRATION MIC, pre-incubated in Water): > 64 µg/mL
MIC (E. faecalis GC 2265; GC2265, read-out: MINIMAL INHIBITORY CONCENTRATION MIC, pre-incubated in Mouse Serum): 1 µg/mL (≈ 1.3 µM)
MIC (E. faecalis GC 2265; GC2265, read-out: MINIMAL INHIBITORY CONCENTRATION MIC, pre-incubated in Water): 4 µg/mL (≈ 5.2 µM)
MIC (E. coli GC 2270; GC2270, read-out: MINIMAL INHIBITORY CONCENTRATION MIC, pre-incubated in Mouse Serum): 1 µg/mL (≈ 1.3 µM)
MIC (E. coli GC 2270; GC2270, read-out: MINIMAL INHIBITORY CONCENTRATION MIC, pre-incubated in Water): > 64 µg/mL
MIC (S. pyogenes GC 4563; GC4563, read-out: MINIMAL INHIBITORY CONCENTRATION MIC, pre-incubated in Mouse Serum): 0.12 µg/mL (≈ 0.156 µM)
MIC (S. pyogenes GC 4563; GC4563, read-out: MINIMAL INHIBITORY CONCENTRATION MIC, pre-incubated in Water): 0.25 µg/mL (≈ 0.325 µM)
MIC (E. coli GC 3226; GC3226, read-out: MINIMAL INHIBITORY CONCENTRATION MIC, pre-incubated in Mouse Serum): 8 µg/mL (≈ 10.4 µM)
MIC (E. coli GC 3226; GC3226, read-out: MINIMAL INHIBITORY CONCENTRATION MIC, pre-incubated in Water): > 64 µg/mL
MIC (E. coli GC 2231; GC2231, read-out: MINIMAL INHIBITORY CONCENTRATION MIC, pre-incubated in Mouse Serum): 2 µg/mL (≈ 2.6 µM)
MIC (E. coli GC 2231; GC2231, read-out: MINIMAL INHIBITORY CONCENTRATION MIC, pre-incubated in Water): > 64 µg/mL
MIC (S. aureus GC 2216; GC2216, read-out: MINIMAL INHIBITORY CONCENTRATION MIC, pre-incubated in Mouse Serum): 1 µg/mL (≈ 1.3 µM)
MIC (S. aureus GC 2216; GC2216, read-out: MINIMAL INHIBITORY CONCENTRATION MIC, pre-incubated in Water): 4 µg/mL (≈ 5.2 µM)
MIC (E. coli; 20 h, read-out: Range of MIC, E. coli (Mouse Serum)): 1 to 8 µg/mL (≈ 1.3 to 10.4 µM)
MIC (E. coli; read-out: Minimum inhibitory concentration (MIC), E. coli (mouse serum)): 1 to 8 µg/mL (≈ 1.3 to 10.4 µM)
MIC (E. coli; read-out: Minimum inhibitory concentration (MIC), E. coli (water)): > 64 µg/mL
MIC (E. coli; read-out: Range of MIC, E. coli (Water)): > 64 µg/mL
MIC (E. faecium GC 2243; GC2243, read-out: MINIMAL INHIBITORY CONCENTRATION MIC, pre-incubated in Mouse Serum): 0.5 µg/mL (≈ 0.649 µM)
MIC (E. faecium GC 2243; GC2243, read-out: MINIMAL INHIBITORY CONCENTRATION MIC, pre-incubated in Water): 4 µg/mL (≈ 5.2 µM)
MIC (E. coli GC 2236; GC2236, read-out: MINIMAL INHIBITORY CONCENTRATION MIC, pre-incubated in Mouse Serum): 2 µg/mL (≈ 2.6 µM)
MIC (E. coli GC 2236; GC2236, read-out: MINIMAL INHIBITORY CONCENTRATION MIC, pre-incubated in Water): > 64 µg/mL
MIC (E. coli GC 2271; GC2271, read-out: MINIMAL INHIBITORY CONCENTRATION MIC, pre-incubated in Mouse Serum): 1 µg/mL (≈ 1.3 µM)
MIC (E. coli GC 2271; GC2271, read-out: MINIMAL INHIBITORY CONCENTRATION MIC, pre-incubated in Water): > 64 µg/mL
MIC (E. coli GC 2234; GC2234, read-out: MINIMAL INHIBITORY CONCENTRATION MIC, pre-incubated in Mouse Serum): 1 µg/mL (≈ 1.3 µM)
MIC (E. coli GC 2234; GC2234, read-out: MINIMAL INHIBITORY CONCENTRATION MIC, pre-incubated in Water): > 64 µg/mL
MIC (Staph.; read-out: Minimum inhibitory concentration (MIC), Staph. (mouse serum)): 0.25 to 4 µg/mL (≈ 0.325 to 5.2 µM)
MIC (Staph.; read-out: Minimum inhibitory concentration (MIC), Staph. (water)): 0.5 to 8 µg/mL (≈ 0.649 to 10.4 µM)
MIC (Staph.; read-out: Range of MIC, Staph (Mouse Serum)): 0.25 to 4 µg/mL (≈ 0.325 to 5.2 µM)
MIC (Staph.; read-out: Range of MIC, Staph (Water)): 0.5 to 8 µg/mL (≈ 0.649 to 10.4 µM)
MIC (E. faecium GC 4556; GC4556, read-out: MINIMAL INHIBITORY CONCENTRATION MIC, pre-incubated in Mouse Serum): 2 µg/mL (≈ 2.6 µM)
MIC (E. faecium GC 4556; GC4556, read-out: MINIMAL INHIBITORY CONCENTRATION MIC, pre-incubated in Water): 4 µg/mL (≈ 5.2 µM)
MIC (S. aureus GC 6469; GC6469, read-out: MINIMAL INHIBITORY CONCENTRATION MIC, pre-incubated in Mouse Serum): 4 µg/mL (≈ 5.2 µM)
MIC (S. aureus GC 6469; GC6469, read-out: MINIMAL INHIBITORY CONCENTRATION MIC, pre-incubated in Water): 4 µg/mL (≈ 5.2 µM)
MIC (E. coli GC 2232; GC2232, read-out: MINIMAL INHIBITORY CONCENTRATION MIC, pre-incubated in Mouse Serum): 1 µg/mL (≈ 1.3 µM)
MIC (E. coli GC 2232; GC2232, read-out: MINIMAL INHIBITORY CONCENTRATION MIC, pre-incubated in Water): > 64 µg/mL
SMILES: CCCCN(CC(=O)Nc1cc(N(C)C)c2c(c1O)C(=O)C1=C(O)[C@]3(O)C(=O)C(C(N)=O)=C(O)[C@@H](N(C)C)[C@@H]3C[C@@H]1C2)C(=O)OCOC(=O)c1cccs1 [Example 23, ({[(2-{[(5aR,6aS,7S,10aS)-9-(aminocarbonyl)-4,7-bis(dimethylamino)-1,8,10a,11-tetrahydroxy-10,12-dioxo-5,5a,6,6a,7,10,10a,12-octahydrotetracen-2-yl]amino}-2-oxoethyl)(butyl)amino]carbonyl}oxy)methyl thiophene-2-carboxylate]
